Here are results for 2 molecules from patent US4360511A, “Amines useful as brain imaging agents” (Medi-Physics, Inc., priority 1980, dated 1982).

For series [1] the following is noted: Friedman et al, July 1978; cited from earlier work.
The conditions of series [2]: Robinson et al, J Nucl Med 17, p 1093 (1976); cited from earlier work.
The nature of series [3]: Bioassay: distribution of I-123-labeled compounds in organs of rats after tail vein injection (percent dose/gram, brain/blood ratio). The series is classed as in vivo, Female Sprague-Dawley rats. To be noted: rat, iv, 60 minutes post-injection, 0.05 to 1.0 mCi, two rats. How it is done: Female Sprague-Dawley rats weighing approximately 150 g were anesthetized with sodium pentobarbital and were injected in a tail vein with from 0.05 to 1.0 mCi (in a volume of 0.2 to 0.5 ml) of the I-123-labeled compound. Two specimens were utilized for each test.
Two animals each were sacrificed at 5 minutes and 60 minutes post-injection, the tails discarded and the amount of activity in various organs determined. Each organ was counted at a standardized geometry with a sodium iodide crystal scintillation counter adjusted for the 159 keV emission of I-123. The organs were also weighed to one thousandth of a gram and the activity calculated as a percent of administered dose per gram of organ weight.
The ratio of brain-to-blood activity was calculated as a percent of administered dose per gram.

Like-named read-outs stand apart in the source and are kept apart here.

In the case of 5-hydroxytryptophan, in series [1], the “activity carried across the blood/brain barrier” value is recorded as “carried some activity across the blood/brain barrier” and the decarboxylation in vivo result was “decarboxylated in vivo”.

Consider `Cc1c([123I])c(=O)n(-c2ccccc2)n1C` [I--123-iodoantipyrine, I-123 labeled 4-iodoantipyrine, reference compound], for which the “concentration in the brain” value in series [2] is “suboptimal concentration in the brain”. Moreover, the in vivo deiodination entry in series [2] is given as “rapid in vivo deiodination”. Moreover, the tissue uptake at 1 h in series [3] (blood, read-out: Percent Dose/Gram Blood 60 min.) is 0.94 %ID/g; in series [3] (brain, read-out: Percent Dose/Gram Brain 60 min.) it was 0.17 %ID/g; in series [3] (heart, read-out: Percent Dose/Gram Heart 60 min.), 0.53 %ID/g.
